For assay [1], the system named is HL60 cells. Put plainly: Differentiation of HL60 cells (Dif50). The format is cell-based, human. As to conditions: for EC50: no unit in head or cell (other cells of the column print uM). The source says:
The tested compounds and their respective results are produced in Table 1. Those skilled in the art will appreciate that combining the securinine and/or norsecurinine analogs with other differentiation inducing agents, such as all-trans retinoic acid, cytarabine and/or an anthracycline, would be of further benefit. Those skilled in the art will appreciate that inducing differentiation may further reduce oxidative damage due to lower presence of radical inducing enzymes (see, e.g., Yamada et al. J Biol Chem 259(5)3021-3025 (1984) and Weil et al., PNAS 84:2057-2061 (1987)).
(§1) The analogs were then tested and evaluated on the ability to affect differentiation and growth of HL60 cells.

The test system of assay [2] is HL60 cells. Put plainly: Growth of HL60 cells (IC50). The arrangement: HL-60, Dif50/IC50 column: second value of 'x/y at 1.25 uM' (growth): unit not given here. To be noted: HL-60 cells. The format is cell-based, human. As for the experimental part:
as §1

Setting [3] is: Homo sapiens, HL-60, HL-60 cells, differentiation, read-out: HL-60, Dif50.
The mark [4] stands for this setting: Homo sapiens, HL-60, read-out: HL-60, Dif50, HL-60 cells, differentiation.
[5] abbreviates: read-out: HL-60, Dif50, HL-60 cells, differentiation.

The structures appear in SMILES notation. Like-named read-outs stand apart in the source and are kept apart here.

For `O=C1C=C2C[C@@H](SCC(F)(F)F)[C@@H]3C[C@@]2(O1)[C@H]1CCCCN31` [INVS-MG-5C], in the assay with HL60 cells [1] (setting [3]), the EC50 lay within 20 to 30 µM. Still for that read-out and setting: then `O=C1C=C2CC(SCCSC3CC4=CC(=O)O[C@]45C[C@H]3N3CCCC[C@H]35)[C@@H]3C[C@@]2(O1)[C@H]1CCCCN31` (stereo partly drawn) [INVS-MG-7C], with 10 to 15 µM. On the same count and under the same terms, the result for `CCCNC1CC2=CC(=O)O[C@@]23C[C@@H]1N1CCCC[C@@H]13` (stereo partly drawn) [INVS-MG-44] reads 15 to 20 µM. The same measure, in the same setting: then `CCN(CC)CCSC1CC2=CC(=O)O[C@@]23C[C@@H]1N1CCCC[C@@H]13` (stereo partly drawn) [INVS-MG-60], with 15 to 20 µM. Consider `O=C1C=C2[C@@H]3C=CC[C@@]2(O1)[C@H]1CCCCN1O3` [INVS-MG-74A], for which, in the assay with HL60 cells [1] (setting [3]), the EC50 is above 30 µM. As for `O=C1O[C@]23CC4OC4[C@H](ON4CCCC[C@@H]42)C32OC12` (stereo partly drawn) [INVS-MG-76-aq], in the assay on HL60 cells [1] (setting [4]), the EC50 is above 30 µM.

With `O=C1O[C@]23CC4OC4[C@H](ON4CCCC[C@@H]42)C32OC12` (stereo partly drawn) [INVS-MG-77-aq], the EC50 in the assay with HL60 cells [1] (setting [5]) was above 30 µM. Consider `COc1ccc(CN[C@@H]2CC3=CC(=O)O[C@@]34C[C@@H]2N2CCCC[C@@H]24)cc1` [INVS-MG-86C], for which the EC50 with HL60 cells [1] (setting [3]) is above 30 µM. As to `O=C1C=C2C=C[C@@H]3C[C@@]2(O1)[C@H]1CCCCN31` [INVS-MG-94-aq], in the assay on HL60 cells [1] (setting [5]), the EC50 was above 30 µM. Take `CO[C@H]1CC2=CC(=O)O[C@@]23C[C@@H]1N1CCCC[C@@H]13` [INVS-MG-97-IIB]: the EC50 in the assay on HL60 cells [1] (setting [4]) is above 30 µM. Take `NC1CC2=CC(=O)O[C@@]23C[C@@H]1N1CCCC[C@@H]13` (stereo partly drawn) [INVS-MG-97-IIE]: the EC50 in the assay on HL60 cells [1] (setting [3]) lay in the range of 20 to 30 µM. In the case of `O=C1C=C2C[C@H](NCCc3cc4ccccc4[nH]3)[C@@H]3C[C@@]2(O1)[C@H]1CCCCN31` [INVS-MG-98B], in the assay on HL60 cells [1] (setting [3]), the EC50 is 10 to 15 µM. For `N#CCCCC#C/C(=C\C1=C[C@@H]2C[C@@]3(OC(=O)C=C13)[C@H]1CCCCN21)CCCC#N` [INVS-MG-125-IIB], the “HL-60, Dif50/IC50 column: first value of 'x/y at 10 uM' (differentiation)” value in the assay with HL60 cells [1] (HL-60 cells) turned out to be 40. Also, in the assay on HL60 cells [2], the “HL-60, Dif50/IC50 column: second value of 'x/y at 10 uM' (growth)” value stood at 35. For `C=CCOCC#CC1=C[C@@H]2C[C@@]3(OC(=O)C=C13)[C@H]1CCCCN21` [INVS-MG-159A] the same measures were 20/20 at 10 uM and 20/20 at 10 uM.

With `O=C1C=C2C(C#CC3C=CCCC3)=C[C@@H]3C[C@@]2(O1)[C@H]1CCCCN31` (stereo partly drawn) [INVS-MG-160B], the “HL-60, Dif50/IC50 column: first value of 'x/y at 1.25 uM' (differentiation)” value with HL60 cells [1] (HL-60 cells, at 1.25 uM) came to 50. The “HL-60, Dif50/IC50 column: second value of 'x/y at 1.25 uM' (growth)” value with HL60 cells [2] (at 1.25 uM) was 40.

Take `O=C1C=C2CC(S(=O)(=O)c3ccccc3)[C@@H]3C[C@@]2(O1)[C@H]1CCCCN31` (stereo partly drawn) [INVS-MG-184B]: the EC50 in the assay with HL60 cells [1] (setting [3]) was in the range of 5 to 7.5 µM. For the compound `C#CC1=C[C@@H]2C[C@@]3(OC(=O)C=C13)[C@H]1CCCCN21` [INVS-MG-207-II], the EC50 with HL60 cells [1] (setting [3]) was above 0.07 µM. On the same count and under the same terms, the result for `OC1C=C2CC(SCc3ccccc3)[C@@H]3C[C@@]2(O1)[C@H]1CCCCN31` (stereo partly drawn) [Sec-2] reads above 30 µM; that for `Oc1ccccc1CSC1CC2=CC(O)O[C@@]23C[C@@H]1N1CCCC[C@@H]13` (stereo partly drawn) [Sec-4], 15 to 20 µM; that for `OC1C=C2CC(SC3CCCC3)[C@@H]3C[C@@]2(O1)[C@H]1CCCCN31` (stereo partly drawn) [Sec-6], 15 to 20 µM. On the same count and under the same terms, then `CSC1CC2=CC(O)O[C@@]23C[C@@H]1N1CCCC[C@@H]13` (stereo partly drawn) [Sec-8], with 10 to 15 µM; and `COc1ccc(SC2CC3=CC(O)O[C@@]34C[C@@H]2N2CCCC[C@@H]24)cc1` (stereo partly drawn) [Sec-9], with 20 to 30 µM; and `O=C1C=C2CC(N3CCN(c4ccc(Br)cc4)CC3)[C@@H]3C[C@@]2(O1)[C@H]1CCCCN31` (stereo partly drawn) [Sec-11], with 15 to 20 µM. Regarding `OC1CC2CC[C@@H]3C[C@@]2(O1)[C@H]1CCCCN31` (stereo partly drawn) [Sec-16], in the assay on HL60 cells [1] (setting [3]), the EC50 is 20 to 30 µM. The same measure, in the same setting: the result for `CC1CC2=CC(=O)O[C@@]23C[C@@H]1N1CCCC[C@@H]13` (stereo partly drawn) [Sec-18 & Sec-20] reads 20 to 30 µM; that for `O=C1C=C2CC(S(=O)Oc3ccccc3)[C@@H]3C[C@@]2(O1)[C@H]1CCCCN31` (stereo partly drawn) [Sec-19], 20 to 30 µM; that for `O=C1C=C2CC([S+]([O-])c3ccccc3)[C@@H]3C[C@@]2(O1)[C@H]1CCCCN31` (stereo partly drawn) [Sec-21], 20 to 30 µM.

Source of the values: US9827229B2, “Small molecule securinine and norsecurinine analogs and their use in cancers, inflammatory diseases and infections” (INVENIO THERAPEUTICS INC., priority 2013, dated 2017).
